Laboratory results from ChEMBL document CHEMBL4825755 (J Med Chem, 2021).
Values after ≈ are worked out from the molar mass of the structure shown. Active and inactive are the calls of the source. The calls are words filed in the database; no cut-off is given here.

Legend:
[1] = Half life in Wistar Han rat at 1 mg/kg, iv administered as infusion for 1 hr by RP LC-MS/MS analysis; type: ADME, organism-based; conditions: in vivo
[2] = target: PI3-kinase p110-alpha/p85-alpha (Homo sapiens, UniProt P42336); assay: Inhibition of recombinant human N-terminal His6-tagged full length P110alpha/full length untagged human p85alpha expressed in baculovirus infected Sf21 insect cells using PIP2 as substrate preincubated for 15 mins followed by substrate addition and measured after 60 mins by HTRF assay
[3] = target: PI3K p110 beta/p85 alpha (Homo sapiens, UniProt P42338); assay: Inhibition of recombinant human N-terminal His6-tagged full length P110beta/full length untagged human p85alpha expressed in baculovirus infected Sf21 insect cells using PIP2 as substrate preincubated for 15 mins followed by substrate addition and measured after 60 mins by HTRF assay
[4] = target: PI3-kinase p110-delta/p85-alpha (Homo sapiens, UniProt O00329); assay: Inhibition of recombinant human N-terminal His6-tagged full length P110delta/full length untagged human p85alpha expressed in baculovirus infected Sf21 insect cells using PIP2 as substrate preincubated for 15 mins followed by substrate addition and measured after 60 mins by HTRF assay
[5] = Clearance in Wistar Han rat at 1 mg/kg, iv administered as infusion for 1 hr by RP LC-MS/MS analysis; type: ADME, organism-based; conditions: in vivo
[6] = Volume of distribution at steady state in Wistar Han rat at 1 mg/kg, iv administered as infusion for 1 hr by RP LC-MS/MS analysis; type: ADME, organism-based; conditions: in vivo, read-out: Vdss
[7] = target: T1, Phosphatidylinositol 4,5-bisphosphate 3-kinase catalytic subunit delta isoform (Homo sapiens, UniProt O00329); assay: Inhibition of PI3Kdelta in human whole blood assessed as reduction in cytostim-stimulated IFNgamma production preincubated for 1 hr followed by cytostim stimulation and measured after 20 hrs by electrochemiluminescence assay
T1 sequence (O00329 whole entry): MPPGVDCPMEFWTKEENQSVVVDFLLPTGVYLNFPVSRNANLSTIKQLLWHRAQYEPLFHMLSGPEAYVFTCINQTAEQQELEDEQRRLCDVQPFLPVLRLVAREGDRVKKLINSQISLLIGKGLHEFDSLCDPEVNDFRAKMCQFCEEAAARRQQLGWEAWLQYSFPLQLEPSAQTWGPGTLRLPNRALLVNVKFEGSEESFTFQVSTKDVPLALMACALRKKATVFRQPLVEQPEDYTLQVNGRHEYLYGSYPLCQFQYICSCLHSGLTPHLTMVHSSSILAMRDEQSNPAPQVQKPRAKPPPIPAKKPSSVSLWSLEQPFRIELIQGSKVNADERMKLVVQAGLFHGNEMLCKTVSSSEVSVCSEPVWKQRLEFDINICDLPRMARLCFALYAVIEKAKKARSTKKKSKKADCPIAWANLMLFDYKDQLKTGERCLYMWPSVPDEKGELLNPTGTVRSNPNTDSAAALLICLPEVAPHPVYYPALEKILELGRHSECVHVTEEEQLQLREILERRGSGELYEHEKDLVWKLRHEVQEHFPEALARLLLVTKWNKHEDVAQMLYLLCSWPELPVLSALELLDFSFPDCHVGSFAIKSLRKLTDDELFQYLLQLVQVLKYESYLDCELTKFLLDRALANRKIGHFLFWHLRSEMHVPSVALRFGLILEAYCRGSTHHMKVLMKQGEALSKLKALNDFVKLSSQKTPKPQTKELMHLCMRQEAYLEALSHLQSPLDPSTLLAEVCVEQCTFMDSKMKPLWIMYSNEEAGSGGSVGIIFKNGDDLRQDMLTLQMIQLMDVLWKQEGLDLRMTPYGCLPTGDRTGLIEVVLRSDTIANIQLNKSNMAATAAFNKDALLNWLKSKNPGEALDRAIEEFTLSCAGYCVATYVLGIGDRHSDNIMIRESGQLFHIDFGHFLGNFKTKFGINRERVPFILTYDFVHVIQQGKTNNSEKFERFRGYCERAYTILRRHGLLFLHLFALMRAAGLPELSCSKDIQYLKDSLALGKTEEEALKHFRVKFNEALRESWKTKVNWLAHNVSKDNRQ

[8] = in vitro; conditions: human, pooled liver microsomes
Description: Intrinsic clearance in pooled human liver microsomes at 0.5 uM measured up to 45 mins in presence of NADPH by LC-MS/MS analysis

[9] = Intrinsic clearance in Wistar Han rat liver microsomes at 0.5 uM measured up to 45 mins in presence of NADPH by LC-MS/MS analysis; type: ADME, Microsome; conditions: read-out: CLH
[10] = target: Phosphatidylinositol 4,5-bisphosphate 3-kinase catalytic subunit gamma isoform (Homo sapiens, UniProt P48736); assay: Inhibition of recombinant human N-terminal His6-tagged full length P120gamma expressed in baculovirus infected Sf21 insect cells using PIP2 as substrate preincubated for 15 mins followed by substrate addition and measured after 60 mins by HTRF assay
[11] = Lipophilicity, log D of compound by chromatographic method; type: physicochemical
[12] = target: serum albumin (Homo sapiens, UniProt P02768); assay: Binding affinity to human serum albumin by HPLC analysis; type: ADME, cell-free; conditions: read-out: PB (converted)
[13] = target: T1, Phosphatidylinositol 4,5-bisphosphate 3-kinase catalytic subunit delta isoform; assay: Inhibition of PI3Kdelta in human HL-60 cell extract measured after 2 hrs by kinobeads based chemoproteomic competition binding assay; type: tissue-based
[14] = Solubility in pH 6.5 FaSSIF incubated for 4 hrs using amorphous form of sample by UV-HPLC method; type: physicochemical
[15] = target: Voltage-gated inwardly rectifying potassium channel KCNH2 (Homo sapiens, UniProt Q12809); assay: Inhibition of human ERG
[16] = target: Phosphatidylinositol 3-kinase catalytic subunit type 3 (Homo sapiens, UniProt Q8NEB9); assay: Inhibition of VPS34 in human HL-60 cell extract measured after 2 hrs by kinobeads based chemoproteomic competition binding assay; type: tissue-based
[17] = species on record: Homo sapiens; assay: Selectivity ratio of IC50 for inhibition of recombinant human N-terminal His6-tagged full length P110delta/full length untagged human p85alpha expressed in baculovirus infected Sf21 insect cells to IC50 for inhibition of PI3Kdelta in human whole blood
[18] = Volume of distribution at steady state in Wistar Han rat at 1 mg/kg, po administered via gavage or 1 mg/kg, iv administered as infusion for 1 hr by RP LC-MS/MS analysis; type: ADME, organism-based; conditions: in vivo, read-out: Vdss
[19] = target: Cytochrome P450 3A4 (Homo sapiens, UniProt P08684); assay: Time-dependent inhibition of CYP3A4 in human liver microsomes using midazolam as substrate; type: ADME
[20] = system: Mus musculus; assay: Antiinflammatory activity in house dust-mite-induced Balb/c mouse model of inflammation assessed as reduction in BAL IL-5 level at 0.1 to 10 mg/kg administered 7 days prior to HDM re-challenge and measured 4 hrs post-HDM re-challenge; type: functional, organism-based; conditions: dose 0.1-10 mg/kg, time 7.0 day
[21] = Half life in Wistar Han rat at 1 mg/kg, po administered via gavage or 1 mg/kg, iv administered as infusion for 1 hr by RP LC-MS/MS analysis; type: ADME, organism-based; conditions: in vivo
[22] = Fraction unbound in human blood; type: ADME, tissue-based
[23] = Clearance in Wistar Han rat at 1 mg/kg, po administered via gavage or 1 mg/kg, iv administered as infusion for 1 hr by RP LC-MS/MS analysis; type: ADME, organism-based; conditions: in vivo
[24] = Permeability of compound in MDCK cells; type: ADME, cell-based, Canis lupus familiaris; conditions: dog, read-out: permeability
[25] = Oral bioavailability in Wistar Han rat at 1 mg/kg administered via gavage by RP LC-MS/MS analysis; type: ADME, organism-based; conditions: in vivo
[26] = Fraction unbound in rat blood; type: ADME, tissue-based
[27] = Solubility in pH 6.5 FaSSIF incubated for 4 hrs using crystalline free base of sample by UV-HPLC method; type: physicochemical
[28] = AUC in Wistar Han rat at 1 mg/kg, po administered via gavage or 1 mg/kg, iv administered as infusion for 1 hr by RP LC-MS/MS analysis; type: ADME, organism-based; parameters: dose 1 mg/kg; conditions: in vivo
[29] = Genotoxicity in Salmonella typhimurium by Ames test; type: toxicity; conditions: salmonella enterica subsp. enterica serovar typhimurium

Chain of Phosphatidylinositol 4,5-bisphosphate 3-kinase catalytic subunit gamma isoform (P48736 whole entry, canonical isoform): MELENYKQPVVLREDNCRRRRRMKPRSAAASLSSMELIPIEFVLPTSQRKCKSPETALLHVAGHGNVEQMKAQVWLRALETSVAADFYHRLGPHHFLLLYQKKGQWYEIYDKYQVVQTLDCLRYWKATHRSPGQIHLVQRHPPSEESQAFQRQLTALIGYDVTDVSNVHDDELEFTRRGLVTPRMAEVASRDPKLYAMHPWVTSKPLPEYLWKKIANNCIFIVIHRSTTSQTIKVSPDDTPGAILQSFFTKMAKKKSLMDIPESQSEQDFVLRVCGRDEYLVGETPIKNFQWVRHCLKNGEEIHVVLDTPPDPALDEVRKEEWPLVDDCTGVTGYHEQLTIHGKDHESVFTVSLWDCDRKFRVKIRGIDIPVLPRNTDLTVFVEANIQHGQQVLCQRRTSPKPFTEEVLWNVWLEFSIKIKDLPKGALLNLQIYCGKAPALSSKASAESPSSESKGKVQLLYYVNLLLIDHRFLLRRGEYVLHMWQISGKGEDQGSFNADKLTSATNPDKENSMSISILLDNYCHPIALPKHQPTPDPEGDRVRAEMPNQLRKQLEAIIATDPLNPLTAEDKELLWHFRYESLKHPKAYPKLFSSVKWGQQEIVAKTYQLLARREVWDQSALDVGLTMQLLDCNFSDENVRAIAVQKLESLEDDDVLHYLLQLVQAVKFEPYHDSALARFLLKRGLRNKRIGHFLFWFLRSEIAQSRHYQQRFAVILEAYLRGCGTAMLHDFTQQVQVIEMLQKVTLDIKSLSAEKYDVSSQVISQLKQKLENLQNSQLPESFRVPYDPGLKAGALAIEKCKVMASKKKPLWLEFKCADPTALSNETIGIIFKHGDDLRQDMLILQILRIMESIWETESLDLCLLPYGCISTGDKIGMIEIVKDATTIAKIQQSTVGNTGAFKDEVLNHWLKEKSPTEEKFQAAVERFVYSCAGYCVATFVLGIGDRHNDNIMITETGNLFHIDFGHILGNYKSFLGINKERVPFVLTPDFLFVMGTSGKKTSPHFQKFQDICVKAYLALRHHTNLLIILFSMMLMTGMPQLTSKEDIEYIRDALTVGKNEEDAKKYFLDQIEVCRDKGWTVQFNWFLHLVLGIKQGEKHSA
Chain of serum albumin (P02768 whole entry, canonical isoform): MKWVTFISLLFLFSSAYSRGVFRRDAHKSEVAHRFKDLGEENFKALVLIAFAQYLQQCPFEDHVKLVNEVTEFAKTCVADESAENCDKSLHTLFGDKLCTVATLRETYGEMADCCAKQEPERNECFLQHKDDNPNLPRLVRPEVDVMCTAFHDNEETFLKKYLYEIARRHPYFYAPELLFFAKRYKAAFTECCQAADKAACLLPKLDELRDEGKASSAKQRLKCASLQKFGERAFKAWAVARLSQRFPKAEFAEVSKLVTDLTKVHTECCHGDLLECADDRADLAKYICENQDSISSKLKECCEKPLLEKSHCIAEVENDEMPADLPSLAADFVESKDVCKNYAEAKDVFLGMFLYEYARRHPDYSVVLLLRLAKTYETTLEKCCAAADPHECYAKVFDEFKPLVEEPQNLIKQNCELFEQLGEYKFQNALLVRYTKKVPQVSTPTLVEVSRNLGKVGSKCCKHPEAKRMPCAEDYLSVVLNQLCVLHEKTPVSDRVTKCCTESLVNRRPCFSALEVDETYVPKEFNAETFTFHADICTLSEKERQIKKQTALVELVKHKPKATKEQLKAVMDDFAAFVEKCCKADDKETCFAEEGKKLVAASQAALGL
Chain of PI3-kinase p110-alpha/p85-alpha (P27986 whole entry): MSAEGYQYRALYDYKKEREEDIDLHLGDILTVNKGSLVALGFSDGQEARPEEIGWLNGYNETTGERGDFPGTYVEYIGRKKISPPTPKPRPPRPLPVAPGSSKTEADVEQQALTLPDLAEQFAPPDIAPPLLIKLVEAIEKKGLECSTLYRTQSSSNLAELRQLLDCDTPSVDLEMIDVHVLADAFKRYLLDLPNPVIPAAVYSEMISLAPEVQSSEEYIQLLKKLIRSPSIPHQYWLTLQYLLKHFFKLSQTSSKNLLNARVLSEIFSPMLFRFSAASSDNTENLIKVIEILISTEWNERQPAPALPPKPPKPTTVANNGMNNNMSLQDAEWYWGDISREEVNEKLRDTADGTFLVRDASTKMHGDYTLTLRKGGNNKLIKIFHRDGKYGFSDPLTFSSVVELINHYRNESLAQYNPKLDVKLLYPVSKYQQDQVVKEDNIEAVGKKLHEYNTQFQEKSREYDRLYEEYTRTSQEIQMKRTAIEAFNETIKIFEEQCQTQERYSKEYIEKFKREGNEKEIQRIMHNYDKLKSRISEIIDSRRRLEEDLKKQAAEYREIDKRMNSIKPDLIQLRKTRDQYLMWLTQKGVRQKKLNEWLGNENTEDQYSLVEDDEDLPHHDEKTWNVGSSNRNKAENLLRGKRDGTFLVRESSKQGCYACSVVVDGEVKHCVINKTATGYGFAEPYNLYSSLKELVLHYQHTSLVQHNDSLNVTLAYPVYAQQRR
Chain of PI3-kinase p110-alpha/p85-alpha (P42336 whole entry): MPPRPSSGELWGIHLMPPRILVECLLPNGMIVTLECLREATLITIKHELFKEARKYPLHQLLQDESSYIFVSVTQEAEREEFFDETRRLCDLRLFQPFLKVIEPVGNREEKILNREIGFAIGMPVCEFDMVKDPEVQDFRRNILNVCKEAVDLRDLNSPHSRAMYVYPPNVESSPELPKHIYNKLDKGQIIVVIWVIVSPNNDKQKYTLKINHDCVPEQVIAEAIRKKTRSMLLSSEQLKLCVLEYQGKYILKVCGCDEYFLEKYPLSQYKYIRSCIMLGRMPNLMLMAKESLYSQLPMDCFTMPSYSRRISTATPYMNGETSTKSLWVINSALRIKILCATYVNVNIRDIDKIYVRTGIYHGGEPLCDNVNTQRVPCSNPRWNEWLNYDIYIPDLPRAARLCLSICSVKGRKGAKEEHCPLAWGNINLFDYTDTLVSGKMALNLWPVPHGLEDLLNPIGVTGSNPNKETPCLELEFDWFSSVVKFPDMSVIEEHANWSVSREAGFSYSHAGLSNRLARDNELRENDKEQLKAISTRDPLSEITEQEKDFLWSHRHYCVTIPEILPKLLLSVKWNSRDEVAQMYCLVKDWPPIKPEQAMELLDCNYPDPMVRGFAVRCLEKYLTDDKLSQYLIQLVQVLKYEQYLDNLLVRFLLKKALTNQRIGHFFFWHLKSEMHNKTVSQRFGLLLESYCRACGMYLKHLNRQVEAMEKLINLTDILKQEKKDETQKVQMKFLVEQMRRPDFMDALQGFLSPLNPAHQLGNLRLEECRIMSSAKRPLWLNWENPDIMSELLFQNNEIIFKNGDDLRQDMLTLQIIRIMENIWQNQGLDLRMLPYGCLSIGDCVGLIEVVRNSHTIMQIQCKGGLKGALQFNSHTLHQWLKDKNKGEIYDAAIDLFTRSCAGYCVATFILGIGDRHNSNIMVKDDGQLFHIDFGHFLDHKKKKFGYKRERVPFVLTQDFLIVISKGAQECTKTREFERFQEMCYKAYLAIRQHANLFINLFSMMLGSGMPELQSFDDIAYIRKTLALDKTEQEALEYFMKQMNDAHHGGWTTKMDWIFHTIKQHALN
Chain of PI3-kinase p110-delta/p85-alpha (P27986 whole entry, one chain of several, the tested form may be a part): as the sequence (P27986 whole entry) above
Chain of PI3K p110 beta/p85 alpha (P27986 whole entry): as above
Chain of PI3K p110 beta/p85 alpha (P42338 whole entry): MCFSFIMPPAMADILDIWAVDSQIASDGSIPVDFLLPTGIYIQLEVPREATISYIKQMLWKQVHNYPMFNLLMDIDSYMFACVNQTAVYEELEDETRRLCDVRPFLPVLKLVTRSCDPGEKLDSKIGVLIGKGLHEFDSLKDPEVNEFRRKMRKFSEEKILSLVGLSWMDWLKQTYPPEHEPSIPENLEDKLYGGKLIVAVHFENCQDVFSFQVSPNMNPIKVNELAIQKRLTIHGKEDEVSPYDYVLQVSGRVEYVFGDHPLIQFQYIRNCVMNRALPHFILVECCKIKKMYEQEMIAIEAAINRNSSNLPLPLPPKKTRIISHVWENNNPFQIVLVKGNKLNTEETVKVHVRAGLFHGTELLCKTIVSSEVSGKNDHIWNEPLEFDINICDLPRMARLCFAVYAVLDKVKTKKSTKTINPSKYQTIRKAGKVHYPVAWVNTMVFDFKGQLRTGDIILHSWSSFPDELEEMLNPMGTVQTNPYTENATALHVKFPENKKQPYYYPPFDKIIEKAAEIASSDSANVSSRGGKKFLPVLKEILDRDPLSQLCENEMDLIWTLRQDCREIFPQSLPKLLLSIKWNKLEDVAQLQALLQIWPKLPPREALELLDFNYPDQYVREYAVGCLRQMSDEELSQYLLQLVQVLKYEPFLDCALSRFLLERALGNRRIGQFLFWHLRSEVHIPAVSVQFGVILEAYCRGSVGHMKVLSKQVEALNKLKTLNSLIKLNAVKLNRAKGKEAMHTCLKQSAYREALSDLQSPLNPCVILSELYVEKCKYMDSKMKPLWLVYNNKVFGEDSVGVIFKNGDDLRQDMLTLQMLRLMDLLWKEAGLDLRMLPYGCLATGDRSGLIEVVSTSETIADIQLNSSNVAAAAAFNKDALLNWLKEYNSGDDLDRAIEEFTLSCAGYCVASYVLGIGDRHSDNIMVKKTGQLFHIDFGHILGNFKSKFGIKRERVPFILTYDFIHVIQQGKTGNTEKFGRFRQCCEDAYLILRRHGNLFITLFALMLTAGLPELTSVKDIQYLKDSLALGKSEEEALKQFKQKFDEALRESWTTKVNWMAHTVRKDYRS

Structure (SMILES) | IC50 [2] [nM] | IC50 [3] [nM] | IC50 [4] [nM] | IC50 [7] [nM] | CLint scaled at 0.75 h, 0.5 µM [8] [mL/min/kg] | CLint scaled at 0.5 µM [9] [mL/min/kg] | IC50 [10] [µM] | chromatographic logD [11] | fraction unbound [12] | Ki [4] [nM] | also measured
COc1ncc(N2CCOCC2)cc1S(=O)(=O)Nc1cncc(-c2ccc(CN3CCCC3)cc2F)c1 | 1000 | 1580 | 3.16 | 20 | < 0.4 | < 0.46 | 2.51 | 2.4 |  |  | half-life [1]: 31.8 min; clearance [5]: 8.8 mL/min/kg; Vd [6]: 0.6 L/kg
COc1ncc(C2=CCOCC2)cc1S(=O)(=O)Nc1cncc(C#CCN2CCN(C(C)C)CC2)c1 | 5010 | 5010 | 6.31 | 50.1 | < 0.4 | 0.54 | 25.1 | 1.8 | 0.17 |  | half-life [1]: 60 min; IC50 [13]: 1.58 nM; clearance [5]: 8.6 mL/min/kg; solubility at 4 h [14]: > 1000 µg/mL; Vd [6]: 0.3 L/kg; IC50 [15]: > 50.1 µM; IC50 [16]: 100 nM
COc1ncc(C2=CCOCC2)cc1S(=O)(=O)Nc1ccnc(C)c1 | 3980 | 316 | 31.6 | 316 |  |  | 3.98 |  | 0.21 |  | Ratio IC50 [17]: 10
COc1ncc(C2=CCOCC2)cc1S(=O)(=O)Nc1cncc(C)c1 | 3160 | 398 | 20 | 3980 |  |  | 5.01 |  | 0.09 |  | Ratio IC50 [17]: 100
COc1ncc(N2CCOCC2)cc1S(=O)(=O)Nc1ccnc(-c2ccc(CN3CCN(C(C)C)CC3)cc2F)c1 | 1000 | 5010 | 0.794 | 6.31 | < 0.4 | < 0.46 | 2 | 1.9 |  | 0.0126 | Vd [18]: 0.5 L/kg; TDI [19]: Not Active; Activity [20]: Active; half-life [21]: 156 min; fraction unbound [22]: 0.132; clearance [23]: 3.8 mL/min/kg; Papp [24]: 2.3 ×10⁻⁶ cm/s; bioavailability [25]: 46%; fraction unbound [26]: 0.021; solubility thermodynamic at 4 h [27]: 899 µg/mL (≈ 1540 µM); AUC [28]: 2020 ng·h/mL; Activity [29]: Non-Toxic
COc1ncc(C2=CCOCC2)cc1S(=O)(=O)Nc1cncc(-c2ccc(CN3CCN(C(C)C)CC3)nc2)c1 | 1260 | 3980 | 1.26 | 31.6 | 0.43 | < 0.46 | 5.01 | 1.8 |  | 0.0251 | 
COc1ncc(C2=CCOCC2)cc1S(=O)(=O)Nc1cncc(-c2ccc(CN3C[C@@H](C)N(C)[C@@H](C)C3)cc2)c1 | 316 | 2510 | 0.501 | 1.26 | 3.04 | 0.87 | 5.01 | 3.1 |  | 0.0158 | 
COc1ncc(N2CCOCC2)cc1S(=O)(=O)Nc1cncc(-c2ccc(CN3CCN(C(C)C)CC3)cc2)c1 | 1260 | 2510 | 2.51 | 20 | 0.71 | < 0.46 | 7.94 | 2.3 |  | 0.0794 | 
COc1ncc(C2=CCOCC2)cc1S(=O)(=O)Nc1cncc(-c2ccc(CN(C)C)cc2)c1 | 5010 | 1000 | 7.94 | 79.4 | < 0.4 | 0.66 | 10 | 2 |  |  | 
COc1ncc(C2=CCOCC2)cc1S(=O)(=O)Nc1cncc(-c2ccc(CN3CCN(C)CC3)cc2)c1 | 251 | 501 | 3.16 | 39.8 | 1.64 | 0.96 | 3.16 | 2.3 |  |  | 
